Reference: patent publication US7504426B2, “Heterocyclic compounds” (Janssen Pharmaceutica N.V., priority 2003, dated 2009)

Key:
[1] = biological target: T1, human histamine H4 receptor (Homo sapiens, UniProt Q9H3N8); assay: biochemical
[2] = biological target: T1, human histamine H4 receptor; assay: Binding assay on recombinant human histamine H4 receptor (3H-histamine displacement); conditions: read-out: Binding Assay Ki; repeated in the chemotaxis table
[3] = system: human eosinophils; assay: Inhibition of histamine-induced eosinophil shape change (GAFS); format: cell-based; conditions: for effect on histamine-induced shape change: human eosinophils
Protocol: Eosinophil accumulation in sites of allergic reaction is a well-known characteristic of allergic rhinitis and asthma. […] Shape change is a cellular characteristic that precedes eosinophil chemotaxis.
Human granulocytes were isolated from human blood by a Ficoll gradient. The red blood cells were lysed with 5-10X Qiagen lysis buffer at room temperature for 5-7 min. Granulocytes were harvested and washed once with FACS buffer. The cells were resuspended at a density of 2×10^6 cells/mL in reaction buffer. […] Ten minutes later the cells were transferred to ice and fixed with 250 μL of ice-cold fixative buffer (2% formaldehyde) for 1 min.
The change in shape of eosinophils is due to cytoskeletal changes that precede chemotaxis and thus is a measure of chemotaxis.

[4] = histamine 0 μM, HR antagonist 10 μM
[5] = histamine 0.01 μM, HR antagonist 10 μM or none
[6] = histamine 0.1 μM, HR antagonist 10 μM or none
[7] = histamine 1 μM, HR antagonist 10 μM or none
[8] = histamine 10 μM, HR antagonist 10 μM or none

T1 sequence (Q9H3N8 whole entry): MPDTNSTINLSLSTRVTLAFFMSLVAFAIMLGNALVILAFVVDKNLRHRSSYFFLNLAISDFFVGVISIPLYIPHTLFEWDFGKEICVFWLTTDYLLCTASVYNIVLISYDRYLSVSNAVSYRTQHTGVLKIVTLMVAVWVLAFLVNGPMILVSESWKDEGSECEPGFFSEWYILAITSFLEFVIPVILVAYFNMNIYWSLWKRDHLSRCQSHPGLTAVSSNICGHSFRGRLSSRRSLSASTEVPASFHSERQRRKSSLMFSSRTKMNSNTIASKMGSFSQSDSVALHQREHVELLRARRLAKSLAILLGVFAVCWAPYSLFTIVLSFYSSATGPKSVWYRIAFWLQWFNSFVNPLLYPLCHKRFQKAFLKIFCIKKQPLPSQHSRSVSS

SMILES | Ki [1] [nM] | other results
CN1CCN(C(=O)c2nc3ccccc3[nH]2)CC1 [Example 1, (1H-Benzoimidazol-2-yl)-(4-methyl-piperazin-1-yl)-methanone] | 32 | 
CCN1CCN(C(=O)c2nc3ccccc3[nH]2)CC1 [Example 2, (1H-Benzoimidazol-2-yl)-(4-ethyl-piperazin-1-yl)-methanone] | 490 | 
CC1CN(C(=O)c2nc3ccccc3[nH]2)CCN1 (stereo not shown) [Example 3, (1H-Benzoimidazol-2-yl)-(3-methyl-piperazin-1-yl)-methanone] | 331 | 
CN1CCCN(C(=O)c2nc3ccccc3[nH]2)CC1 [Example 4, (1H-Benzoimidazol-2-yl)-(4-methyl-[1,4]diazepan-1-yl)-methanone] | 1400 | 
CN1C2CCC1CC(NC(=O)c1nc3ccccc3[nH]1)C2 (stereo not shown) [Example 5, 1H-Benzoimidazole-2-carboxylic acid (8-methyl-8-aza-bicyclo[3.2.1]oct-3-yl)-amide] | 89 | 
CN1CCN(C(=O)c2nc3cc(Cl)ccc3[nH]2)CC1 [Example 6, (5-Chloro-1H-benzoimidazol-2-yl)-(4-methyl-piperazin-1-yl)-methanone] | 25 | Ki [2]: 25 nM
CC1CN(C(=O)c2nc3cc(Cl)ccc3[nH]2)CCN1 (stereo not shown) [Example 8, (5-Chloro-1H-benzoimidazol-2-yl)-(3-methyl-piperazin-1-yl)-methanone] | 300 | 
CCN1CCN(C(=O)c2nc3cc(F)c(F)cc3[nH]2)CC1 [Example 10, (5,6-Difluoro-1H-benzoimidazol-2-yl)-(4-ethyl-piperazin-1-yl)-methanone] | 620 | 
CC1CN(C(=O)c2nc3cc(F)c(F)cc3[nH]2)CCN1 (stereo not shown) [Example 11, (5,6-Difluoro-1H-benzoimidazol-2-yl)-(3-methyl-piperazin-1-yl)-methanone] | 355 | 
CN1CCCN(C(=O)c2nc3cc(F)c(F)cc3[nH]2)CC1 [Example 12, (5,6-Difluoro-1H-benzoimidazol-2-yl)-(4-methyl-[1,4]diazepan-1-yl)-methanone] | 807 | 
CN1C2CCC1CC(NC(=O)c1nc3cc(F)c(F)cc3[nH]1)C2 (stereo not shown) [Example 13, 5,6-Difluoro-1H-benzoimidazole-2-carboxylic acid (8-methyl-8-aza-bicyclo[3.2.1]oct-3-yl)-amide] | 380 | 
CN1CCN(C(=O)c2nc3cc(F)c(Cl)cc3[nH]2)CC1 [Example 14, (6-Chloro-5-fluoro-1H-benzoimidazol-2-yl)-(4-methyl-piperazin-1-yl)-methanone] | 53 | 
O=C(c1nc2cc(F)c(Cl)cc2[nH]1)N1CCNCC1 [Example 15, (6-Chloro-5-fluoro-1H-benzoimidazol-2-yl)-piperazin-1-yl-methanone] | 216 | 
CN1CCCN(C(=O)c2nc3cc(F)c(Cl)cc3[nH]2)CC1 [Example 16, (6-Chloro-5-fluoro-1H-benzoimidazol-2-yl)-(4-methyl-[1,4]diazepan-1-yl)-methanone] | 1300 | 
CN1C2CCC1CC(NC(=O)c1nc3cc(F)c(Cl)cc3[nH]1)C2 (stereo not shown) [Example 17, 6-Chloro-5-fluoro-1H-benzoimidazole-2-carboxylic acid (8-methyl-8-aza-bicyclo[3.2.1]oct-3-yl)-amide] | 535 | 
Cc1cc2nc(C(=O)N3CCN(C)CC3)[nH]c2cc1Cl [Example 18, (5-Chloro-6-methyl-1H-benzoimidazol-2-yl)-(4-methyl-piperazin-1-yl)-methanone] | 226 | 
Cc1cc2nc(C(=O)N3CCNCC3)[nH]c2cc1Cl [Example 19, (5-Chloro-6-methyl-1H-benzoimidazol-2-yl)-piperazin-1-yl-methanone] | 1000 | 
Cc1cccc2[nH]c(C(=O)N3CCNC(C)C3)nc12 (stereo not shown) [Example 20, (4-Methyl-1H-benzoimidazol-2-yl)-(3-methyl-piperazin-1-yl)-methanone] | 156 | 
CCN1CCN(C(=O)c2nc3c(C)cccc3[nH]2)CC1 [Example 21, (4-Ethyl-piperazin-1-yl)-(4-methyl-1H-benzoimidazol-2-yl)-methanone] | 468 | 
Cc1cccc2[nH]c(C(=O)N3CCN(C)CC3)nc12 [Example 22, (4-Methyl-1H-benzoimidazol-2-yl)-(4-methyl-piperazin-1-yl)-methanone] | 31 | 
Cc1cccc2[nH]c(C(=O)N3CCNCC3)nc12 [Example 23, (4-Methyl-1H-benzoimidazol-2-yl)-piperazin-1-yl-methanone] | 135 | 
Cc1cccc2[nH]c(C(=O)N[C@H]3C[C@H]4CC[C@@H](C3)N4C)nc12 [Example 24, 4-Methyl-1H-benzoimidazole-2-carboxylic acid (8-methyl-8-aza-bicyclo[3.2.1]oct-3-yl)-amide] | 270 | 

SMILES | Ki [1] [nM] | other results
Cc1ccc2[nH]c(C(=O)N3CCN(C)CC3)nc2c1 [Example 26, (5-Methyl-1H-benzoimidazol-2-yl)-(4-methyl-piperazin-1-yl)-methanone] | 528 | 
CN1CCN(C(=O)c2nc3cc(C(F)(F)F)ccc3[nH]2)CC1 [Example 27, (4-Methyl-piperazin-1-yl)-(5-trifluoromethyl-1H-benzoimidazol-2-yl)-methanone] | 11 | 
O=C(c1nc2cc(C(F)(F)F)ccc2[nH]1)N1CCNCC1 [Example 28, Piperazin-1-yl-(5-trifluoromethyl-1H-benzoimidazol-2-yl)-methanone] | 420 | 
CN1CCN(C(=O)c2nc3cc(F)ccc3[nH]2)CC1 [Example 29, (5-Fluoro-1H-benzoimidazol-2-yl)-(4-methyl-piperazin-1-yl)-methanone] | 26 | 
CCN1CCN(C(=O)c2nc3cc(F)ccc3[nH]2)CC1 [Example 30, (4-Ethyl-piperazin-1-yl)-(5-fluoro-1H-benzoimidazol-2-yl)-methanone] | 370 | 
O=C(c1nc2cc(F)ccc2[nH]1)N1CCNCC1 [Example 31, (5-Fluoro-1H-benzoimidazol-2-yl)-piperazin-1-yl-methanone] | 42 | 
CC1CN(C(=O)c2nc3cc(F)ccc3[nH]2)CCN1 (stereo not shown) [Example 32, (5-Fluoro-1H-benzoimidazol-2-yl)-(3-methyl-piperazin-1-yl)-methanone] | 460 | 
CN1CCN(C(=O)c2nc3cccnc3[nH]2)CC1 [Example 34, (3H-Imidazo[4,5-b]pyridin-2-yl)-(4-methyl-piperazin-1-yl)-methanone] | 833 | 
CN1CCN(C(=O)c2nc3ccccc3o2)CC1 [Example 35, Benzooxazol-2-yl-(4-methyl-piperazin-1-yl)-methanone] | 620 | 
Cc1cccc2nc(C(=O)N3CCN(C)CC3)oc12 [Example 36, (7-Methyl-benzooxazol-2-yl)-(4-methyl-piperazin-1-yl)-methanone] | 1200 | 
Cc1ccc2oc(C(=O)N3CCN(C)CC3)nc2c1 [Example 37, (5-Methyl-benzooxazol-2-yl)-(4-methyl-piperazin-1-yl)-methanone] | 1300 | 
Cc1cccc2oc(C(=O)N3CCN(C)CC3)nc12 [Example 38, (4-Methyl-benzooxazol-2-yl)-(4-methyl-piperazin-1-yl)-methanone] | 1600 | 
CN1CCN(C(=O)c2nc3ccccc3s2)CC1 [Example 39, Benzothiazol-2-yl-(4-methyl-piperazin-1-yl)-methanone] | 810 | 
CN1CCN(C(=O)c2nc3cc(C(=O)c4ccccc4)ccc3[nH]2)CC1 [Example 40, (5-Benzoyl-1H-benzoimidazol-2-yl)-(4-methyl-piperazin-1-yl)-methanone] | 8000 | 
CN1CCN(C(=O)c2nc3c(Cl)cccc3[nH]2)CC1 [Example 41, (4-Chloro-1H-benzoimidazol-2-yl)-(4-methyl-piperazin-1-yl)-methanone] | 57 | 
CN1CCN(C(=N)c2nc3cc(Cl)ccc3[nH]2)CC1 [Example 45, C-(5-Chloro-1H-benzoimidazol-2-yl)-C-(4-methyl-piperazin-1-yl)-methyleneamine] | 110 | 
CN1CCN(C(=O)c2nc3c(F)cc(F)cc3[nH]2)CC1 [Example 46, (4,6-Difluoro-1H-benzoimidazol-2-yl)-(4-methyl-piperazin-1-yl)-methanone] | 64 | 
CN1CCN(C(=O)c2nc3cc([N+](=O)[O-])ccc3[nH]2)CC1 [Example 47, (4-Methyl-piperazin-1-yl)-(5-nitro-1H-benzoimidazol-2-yl)-methanone] | 158 | 
Cc1c(F)ccc2[nH]c(C(=O)N3CCN(C)CC3)nc12 [Example 48, (5-Fluoro-4-methyl-1H-benzoimidazol-2-yl)-(4-methyl-piperazin-1-yl)-methanone] | 23 | 
CN1CCN(C(=O)c2nc3cc(Br)ccc3[nH]2)CC1 [Example 49, (5-Bromo-1H-benzoimidazol-2-yl)-(4-methyl-piperazin-1-yl)-methanone] | 51 | 
CN(C)CCOC(c1ccccc1)c1ccccc1 [diphenhydramine] |  | Fold Change (eosinophil shape change) [3, 4]: 1.00; Fold Change (eosinophil shape change) [3, 5]: 1.03; Fold Change (eosinophil shape change) [3, 6]: 1.18; Fold Change (eosinophil shape change) [3, 7]: 1.50; Fold Change (eosinophil shape change) [3, 8]: 1.63; effect on histamine-induced shape change [3]: did not alter the histamine-induced shape change
CNC(=C[N+](=O)[O-])NCCSCc1ccc(CN(C)C)o1 [ranatidine] |  | Fold Change (eosinophil shape change) [3, 4]: 1.00; Fold Change (eosinophil shape change) [3, 5]: 1.04; Fold Change (eosinophil shape change) [3, 6]: 1.21; Fold Change (eosinophil shape change) [3, 7]: 1.49; Fold Change (eosinophil shape change) [3, 8]: 1.64; effect on histamine-induced shape change [3]: did not alter the histamine-induced shape change
